Test results as given in ChEMBL document CHEMBL5113403, “Design, synthesis, and biological evaluation of novel pyrazolo [3,4-d]pyrimidine derivatives as potent PLK4 inhibitors for the treatment of TRIM37-amplified breast cancer” (Eur J Med Chem, 2022).

Columns and labels:
[1] = system: MCF7; experiment: Induction of cell cycle arrest in human MCF7 cells assessed as G2 phase cells at 0.10 uM measured after 48 hrs by flow cytometry analysis (reference value: 31.8 %); format: functional; details: dose 0.1 µM
[2] = AUCinfinity in Sprague-Dawley rat at 3 mg/kg, iv by LC-MS/MS analysis; format: ADME, organism-based; set-up: time infinity, dose 3 mg/kg, route iv; details: in vivo
[3] = system: MCF7; experiment: Induction of cell cycle arrest in human MCF7 cells assessed as S phase cells at 1 uM measured after 48 hrs by flow cytometry analysis (reference value: 9.31 %); format: functional
[4] = Plasma stability in human assessed as compound remaining at 100 uM measured after 10 mins by LC-MS/MS analysis relative to control; format: ADME, cell-free; details: read-out: Stability
[5] = system: MCF7; experiment: Induction of cell cycle arrest in human MCF7 cells assessed as G2 phase cells at 0.50 uM measured after 48 hrs by flow cytometry analysis (reference value: 31.8 %); format: functional; details: dose 0.5 µM
[6] = system: MCF7; experiment: Induction of cell cycle arrest in human MCF7 cells assessed as S phase cells at 0.10 uM measured after 48 hrs by flow cytometry analysis (reference value: 9.31 %); format: functional; details: dose 0.1 µM
[7] = system: MCF7; experiment: Induction of apoptosis in human MCF7 cells assessed as early apoptotic cells at 0.10 uM incubated for 48 hrs by Annexin-V-FITC/PI staining based flow cytometric analysis (reference value: 2.83 %); format: functional; details: dose 0.1 µM
[8] = system: MCF7; experiment: Induction of apoptosis in human MCF7 cells assessed as necrotic cells at 2.5 uM incubated for 48 hrs by Annexin-V-FITC/PI staining based flow cytometric analysis (reference value: 0.18 %); format: functional
[9] = system: BT-474; experiment: Antiproliferative activity against human BT-474 cells assessed as cell growth inhibition incubated for 5 days by MTT assay; format: functional, cell-based; details: BT-474, 120 h
[10] = Plasma stability in human assessed as half-life at 100 uM measured upto 120 mins by LC-MS/MS analysis relative to control; format: ADME, cell-free
[11] = Volume of distribution at steady state in Sprague-Dawley rat at 3 mg/kg, iv by LC-MS/MS analysis; format: ADME, organism-based; details: in vivo, read-out: Vdss
[12] = Metabolic stability in human liver microsomes assessed as intrinsic clearance at 100 uM measured upto 60 mins in the presence of NADPH by LC-MS/MS analysis; format: ADME, Microsome; details: 1 h
[13] = system: MCF7; experiment: Induction of apoptosis in human MCF7 cells assessed as viable cells at 0.25 uM incubated for 48 hrs by Annexin-V-FITC/PI staining based flow cytometric analysis (reference value: 97 %); format: functional
[14] = target: CYP2C19 (Homo sapiens, UniProt P33261); experiment: Inhibition of CYP2C19 in human liver microsomes at 10 uM preincubated for 10 mins followed by addition of NADPH-regenerating system and measured after 15 mins by LC-MS/MS analysis relative to control; format: ADME, Microsome; details: time 25 min
Chain of CYP2C19 (P33261 whole entry): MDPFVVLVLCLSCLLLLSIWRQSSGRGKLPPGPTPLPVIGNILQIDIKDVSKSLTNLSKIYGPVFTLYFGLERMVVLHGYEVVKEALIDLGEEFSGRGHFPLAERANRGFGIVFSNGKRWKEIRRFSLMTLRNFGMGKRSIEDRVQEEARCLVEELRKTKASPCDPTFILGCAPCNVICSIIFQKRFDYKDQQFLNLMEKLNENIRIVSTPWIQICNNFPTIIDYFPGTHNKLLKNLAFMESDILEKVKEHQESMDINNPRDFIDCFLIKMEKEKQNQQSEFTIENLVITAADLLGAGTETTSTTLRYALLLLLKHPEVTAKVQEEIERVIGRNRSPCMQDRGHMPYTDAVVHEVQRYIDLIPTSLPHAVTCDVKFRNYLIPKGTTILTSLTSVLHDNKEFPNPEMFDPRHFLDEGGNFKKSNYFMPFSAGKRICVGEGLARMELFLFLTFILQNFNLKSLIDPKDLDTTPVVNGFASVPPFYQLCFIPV

[15] = target: CYP2D6 (Homo sapiens, UniProt P10635); experiment: Inhibition of CYP2D6 in human liver microsomes at 10 uM preincubated for 10 mins followed by addition of NADPH-regenerating system and measured after 15 mins by LC-MS/MS analysis relative to control; format: ADME, Microsome; details: time 25 min
Chain of CYP2D6 (P10635 whole entry): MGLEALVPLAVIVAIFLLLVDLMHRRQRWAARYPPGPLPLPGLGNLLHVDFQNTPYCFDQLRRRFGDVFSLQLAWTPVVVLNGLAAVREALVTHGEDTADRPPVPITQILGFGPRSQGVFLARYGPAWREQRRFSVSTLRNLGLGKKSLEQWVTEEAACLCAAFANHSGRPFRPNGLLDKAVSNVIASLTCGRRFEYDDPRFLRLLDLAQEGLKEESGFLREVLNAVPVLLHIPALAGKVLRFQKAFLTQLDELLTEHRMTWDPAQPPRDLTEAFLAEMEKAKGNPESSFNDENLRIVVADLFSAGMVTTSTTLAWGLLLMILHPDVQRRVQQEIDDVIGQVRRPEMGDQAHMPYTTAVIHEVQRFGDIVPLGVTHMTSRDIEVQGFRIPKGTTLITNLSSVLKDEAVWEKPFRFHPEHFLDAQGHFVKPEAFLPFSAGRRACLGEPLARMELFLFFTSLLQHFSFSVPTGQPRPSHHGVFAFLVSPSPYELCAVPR

AUC(0-inf) [2]: 1070 ng·h/mL | remaining at 10 min, 100 µM [4]: 108% | IC50 [9]: 2350 nM | half-life at 100 µM [10]: > 4.82 h | Vd [11]: 3.02 L/kg | CLint [12]: 46.8 µL/min/mg | inhibition at 0.25 h, 10 µM [14]: 32.9% | inhibition at 0.25 h, 10 µM [15]: 13.4%
SMILES: Cc1cc(Nc2nc(NCc3ccc(F)cc3F)nc3c2cnn3C2CCOCC2)n[nH]1
Activity [1]: 38% | Activity [3]: 19.2% | Activity [5]: 44.6% | Activity [6]: 7.46% | Activity [7]: 19.3% | Activity [8]: 0.98% | Activity [13]: 67.1%
